Tests used:
[1] = Pharmacokinetic experiment in Beagle dogs (IV and PO); type: in vivo; conditions: male, dog, plasma, PO 5 mg/kg
Source text: Polyethylene glycol 400 (batch number: GORKREUT, Saen Chemical Technology (Shanghai) Co., Ltd.); DMSO (batch number: 20200319, GHTECH (Guangdong) Co., Ltd.); and normal saline (batch number: C20052604, Jiangxi Kelun Pharmaceutical Co., Ltd.). An LC-MS instrument (Thermo Fisher Ultimate 3000 UPLC, TSQ QUANTUM ULTRA TSQ Quantum GC).
5 male Beagle dogs with weights being 5 kg to 7 kg, purchased from Beijing Mars Biotechnology Co., Ltd. […]
After the above mixture is given to the dogs through intragastric administration (n=3) or intravenous administration (n=2), about 1 mL of blood is collected from the forelimb or hindlimb vein with a scalp needle, respectively, at 5 min (intravenous administration only), 15 min, 30 min, 1 h, 2 h, 4 h, 6 h, 8 h, 24 h to put into blood collection tubes containing EDTA-K2 anticoagulant; centrifugation is performed for 10 min at 4000 rpm to separate plasma; and then the tubes are stored at −80° C. for testing.
A certain amount of a test sample is accurately weighted and dissolved with DMSO to 2 mg/mL, as a stock solution. The stock solution is diluted to 30000, 10000, 3000, 1000, 300, 100, 50, 30, and 10 ng/mL by using acetonitrile:water (1:1), to obtain standard curve working solutions. 5 μL of the working solution is added to 45 μL of blank canine plasma; and well mixing is performed through vortex, to prepare into standard curve samples equivalent to plasma concentrations of 3000, 1000, 300, 100, 30, 10, 5, 3, and 1 ng/mL. 30 μL of the standard curve sample and the collected plasma sample (plasma collected at 5 min, 15 min, and 30 min of intravenous administration is diluted 5-fold) are added to 150 μL of a propranolol acetonitrile solution (internal standard, 50 ng/mL) to precipitate protein, then 100 μL of water is added to well mix through vortex; centrifugation is performed for 5 min at 4000 rpm; and supernatant is taken for LC-MS analysis. LC-MS detection conditions include the following.
Chromatographic column: Waters ACQUITY™ PREMIER HSS T3, 50*2.1 mm, 1.8 μm.
Mobile phase A: water (0.1% formic acid); mobile phase B: acetonitrile; flow rate: 0.5 mL/min; and gradient elution is shown in Table 3 below.
After LC-MS detection of blood drug concentration, and a non-compartment model of WinNonlin 6.1 software is adopted to calculate pharmacokinetic parameters of beagle dogs after administration.

p38α = p38α (Homo sapiens, UniProt Q16539); test: p38α kinase screening experiment (ADP-Glo); type: biochemical
Chain of p38α (Q16539 whole entry): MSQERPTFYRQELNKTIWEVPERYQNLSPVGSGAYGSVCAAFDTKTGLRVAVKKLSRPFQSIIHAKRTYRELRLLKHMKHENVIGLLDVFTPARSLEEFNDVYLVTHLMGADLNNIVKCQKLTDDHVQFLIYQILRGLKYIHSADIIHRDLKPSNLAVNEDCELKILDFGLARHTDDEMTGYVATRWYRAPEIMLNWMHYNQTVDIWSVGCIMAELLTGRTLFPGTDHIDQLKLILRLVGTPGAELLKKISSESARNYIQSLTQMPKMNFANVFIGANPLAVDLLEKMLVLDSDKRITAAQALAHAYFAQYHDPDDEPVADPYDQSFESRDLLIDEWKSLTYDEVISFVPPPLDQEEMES
Experimental: A certain amount of the compound is weighed, prepared into a 10/50 mM mother solution with DMSO, diluted 3 folds with DMSO, and diluted to 10 concentration points as a compound working solution.
50 nL of the diluted compound working solution is transferred to each well of a reaction plate (784075, Greiner) with Echo 655, then 2.5 μL (4 ng/μL) of a p38α kinase solution is added; after 10 minutes at room temperature, 2.5 μL of a mixed solution of a kinase substrate (0.2 mg/mL) and ATP (150 μM) is added, for reaction for 60 min at room temperature; and 4 μL of an ADP Glo reagent is added, for incubation for 40 min at room temperature. 8 μL of a kinase detection reagent is added, for incubation for 40 min at room temperature; and finally a light-emitting signal is read on Envision 2104.

[2] = system: production of TNFα in U937; test: Releasing TNFα from U937 induced by LPS; type: cell-based; conditions: Homo sapiens, U-937; PMA-differentiated U937, LPS 100 ng/ml, 4 h; read-out: IC50 value that the compound inhibits the production of TNFα
In short: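 U937 cells differentiated with PMA (20 ng/ml, 48 h) were pretreated with compound (0.1% DMSO final) for 30 min at 37 °C, then stimulated with LPS (100 ng/ml) for 4 h. Supernatant TNFα was quantified by ELISA against a kit standard curve, and IC50 came from nonlinear fitting.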

Molecule Cc1cnc(-n2cccc(C(C)(C)O)c2=O)cc1-n1c(C)cc(OCc2ncc(F)cc2F)c(Cl)c1=O [Comparative example 1] has an AUC(0-t) [1] of 32900 ng·h/mL, a Cmax [1] of 5550 ng/mL and an IC50 (p38α; ATP 150 μM in the substrate/ATP mix, 60 min, read-out: IC50 value that the compound inhibits p38α) of 578 nM. The “Activity multiple relative to p38α/(p38α/MK2 complex)” value (p38α; ratio of p38α IC50 to p38α/MK2 complex IC50 of Embodiment 50) was 222 and the IC50 [2] was 1.63 nM.

From patent US20240166627A1, “Terpyridinedione compound or salt thereof, and preparation method and application thereof” (SHENZHEN SALUBRIS PHARMACEUTICALS CO., LTD., priority 2021, published 2024)
